Molecules are shown by their SMILES.

The text below walks through data of patent publication US10450260B2, “NO- and H2S-releasing compounds” (RESEARCH FOUNDATION OF THE CITY UNIVERSITY OF NEW YORK, priority 2011, dated 2019).

Experiment [1] deals with eleven different cancer cell lines. In words: MTT cell growth inhibition, all cell lines of the panel. It counts as cell-based. The following applies: Homo sapiens; 24 hr; colon, breast, pancreas, lung, prostate, leukemia cancer cell lines of Table 1. The procedure: HT-29, SW-480 and HCT-15 human colon adenocarcinoma, MIA PaCa-2 and BxPC-3 human pancreatic cancer, LNCAP human prostate cancer, A549 human lung cancer, MCF-7 (estrogen receptor positive), MDA-MB 231 and SK-BR-3 (estrogen receptor negative) human breast cancer, and Jurkats human leukemia cell lines were obtained from American Type Tissue Collection (Manassas, Va.). All cells lines were grown as monolayers except for the Jurkats which were grown in suspension. […] Single cell suspensions were obtained by trypsinization (0.05% trypsin/EDTA), and cells were counted using a hemocytometer. Viability was determined by the trypan blue dye exclusion method.
Cell growth inhibitory effect of NOSH compounds were measured using a colorimetric MTT assay kit (Roche, Indianapolis, Ind.). […] The absorbance of the plates was measured on an ELISA reader at a wavelength of 570 nm. […]
HT-29, SW-480 and HCT-15 human colon adenocarcinoma, MIA PaCa-2 and BxPC-3 human pancreatic cancer, LNCAP human prostate cancer, A549 and H383 human lung cancer, MCF-7, MDA-MB 231 and SK-BR-3 human breast cancer and Jurkat T cell human leukemia cell lines were obtained from American Type Tissue Collection (Manassas, Va.) All cells lines were grown as monolayers except for the Jurkat T cells which were grown as suspension culture. […] Viability was determined by the trypan blue dye exclusion method. […]

Experiment [2] concerns HT-29 colon cancer cells. In words: Cell proliferation, PCNA expression. The following applies: 24 hours. It counts as cell-based, human. The procedure:
(§1) Growth inhibition was measured using a colorimetric MTT assay kit (Roche, Indianapolis, Ind.). Proliferation (PCNA) was assessed using an ELISA kit from Calbiochem, (La Jolla, Calif.). Cell cycle phase distributions and apoptosis of control and treated cells were determined as previously described. All methods are described in Chattopadhyay et al., Biochemical Pharmacology, 2012, 83(6), 715-722.

For experiment [3], the system named is HT-29 colon cancer cells. Put plainly: Apoptosis, Annexin V staining and flow cytometry. It counts as cell-based, human. How it is done: as §1
(A flow cytometer gives signals particle by particle.)

Experiment [4] concerns MDA-MB-231 (ER−) breast cancer cell xenograft. Put plainly: MDA-MB-231 xenograft in athymic nude mice. It counts as in vivo, mouse. The text has this:
Male athymic nude (NU/NU) mice, age 5 weeks, were purchased from Charles River Laboratories, Inc., (Wilmington, Mass.) and were housed according to institutional and NIH guidelines.
Human colon (SW480), Breast (MCF-7, MDA-MB-231), and pancreas (MIA PaCa2) cancer cells (2×10^6) suspended in Matrigel (BD Biosciences, San Jose, Calif.) 50% v/v were inoculated subcutaneously in the right flanks of each mouse (10 mice per group) using a 1-mL syringe and 22-gauge needles. After 10 days the animals from each implanted cell line were randomly divided into 2 groups (N=5/group) and gavaged daily with either vehicle (1% methylcelloluse) or NOSH-naproxen (100 mg/kg) or NOSH (100 mg/kg), the ADT-OH-butyl nitrate compound that releases H2S and NO, in the case of colon cancer xenografts; or NOSH-aspirin (100 mg/kg body weight) in the breast and pancreatic cancers groups. The tumor size was measured every other day using electronic calipers, the tumor volumes were calculated using the following formula: length×width^2/2. The weights of the mice were also recorded every 3 days. Twenty-seven (27) to thirty (30) days post inoculation, the mice were sacrificed, the tumors collected, weighed, and photographed.

In the case of `CC(=O)Oc1ccccc1C(=O)O` [ASA, aspirin, reference compound], in experiment [1], the IC50 (commonly the concentration at which inhibition is half-maximal) was above 5 mM.
Consider `O=C(CCCO[N+](=O)[O-])Oc1ccccc1C(=O)Oc1ccc(-c2cc(=S)ss2)cc1` [NOSH-1, 4-(3-thioxo-3H-1,2-dithiol-5-yl)phenyl 2-((4-(nitrooxy)butanoyl)oxy)benzoate], for which the figures for the “reduction of PCNA expression” value in the experiment on HT-29 colon cancer cells [2] (0.5×IC50 (25 nM)), in the experiment on HT-29 colon cancer cells [2] (1×IC50 (50 nM)) and in the experiment on HT-29 colon cancer cells [2] (2×IC50 (100 nM)) were 18.2±1.5%, 50.3±3.2% and 77.4±2.2%, respectively. For the same molecule, the “cells in early apoptotic phase” value in the experiment on HT-29 colon cancer cells [3] (0.5×IC50, 24 hours) is listed as 24.7±1.4%; in the experiment with HT-29 colon cancer cells [3] (1×IC50, 24 hours) it was 32.8±2.1%; in the experiment on HT-29 colon cancer cells [3] (2×IC50, 24 hours), 55.9±3.3%. In experiment [4] (100 mg/kg daily gavage, end of study, control 1886±200), this molecule yielded a mean tumor volume of 35±9 mm^3. Moreover, the “reduction of tumor mass” value in experiment [4] (100 mg/kg daily, day 27, vs control) is recorded as 91%. Besides, the average tumor mass in experiment [4] (100 mg/kg daily, day 27, control 1.2±0.33) amounted to 0.11 ± 0.058 g. Further, in experiment [4] (100 mg/kg daily, vs control), the “mean reduction of tumor volume” value stood at 98%.
